From article PMC10303271, “Synthesis and Receptor Binding Studies of α5 GABAAR Selective Novel Imidazodiazepines Targeted for Psychiatric and Cognitive Disorders” (Molecules, 2023) come the findings set out here.

The target of one series is T1, hERG channels (Homo sapiens, UniProt Q12809).
T1 construct: purchased NIMH Psychoactive Drug Screening Program (PDSP)
Kind of series: PDSP radioligand binding at hERG. The conditions noted are these: primary binding, 10,000 nM; last figure of the line = mean of the 4 before it. Here is the method: (§1) To determine if any off-target receptor-binding effects are present, all the novel ligands were sent to the National Institute of Mental Health (NIMH), Psychoactive Drug Screening Program (PDSP). The ligands were screened over a panel of 47 receptors, ion channels, and transporters to determine any other possible interactions with […]. The hERG-binding was also determined. […] No binding of the test compounds to calcium channels was observed. […] It is necessary to screen the compounds for hERG-binding during the early process of drug discovery. The unintentional binding of many drugs to hERG can cause blockade of hERG K+ channels in the heart, which can cause many side effects including cardiac arrhythmias and sudden death. […] All of the α5 imidazodiazepines were tested for hERG-binding.
(§2) The NIMH PDSP assay protocol book [https://kidbdev.med.unc.edu/databases/PDSP%20Protocols%20II%202013-03-28.pdf accessed on 23 April 2023]. describes the protocols for primary and secondary radio-ligand binding assays. These assays were carried out in a final volume of 125 µL per well in the appropriate binding buffer.
(§3) The binding of a ligand to a receptor, ion channel, or transporter was determined in the […] of 10 µM of the appropriate reference compound. […] Plates were incubated in the dark for 90 min at rt, and the reactions were stopped by vacuum filtration onto 0.3% polyethyleneimine (PEI) soaked 96-well filter mats using a 96-well Filtermateharvester. This was followed by three washes with cold PBS buffer. Radioactivity was then counted on a Microbeta counter. Nonlinear regression was used to analyze the data with N = 6 replicates.
For orientation: hERG is a cardiac potassium channel; its block is linked to QT prolongation.

Another series has as its target T2, 5-HT1D (Homo sapiens, UniProt P28221).
T2 construct: purchased NIMH Psychoactive Drug Screening Program (PDSP)
Kind of series: PDSP primary binding 5-HT1D. The settings on record: 1.5 h; primary binding, 10,000 nM; last figure of the line = mean of the 4 before it; read-out: 5-HT1D, PDSP raw data, mean. Here is the method: as §1, §2, §3

Another series addresses T3, 5-HT3 (Homo sapiens, UniProt P46098).
T3 construct: purchased NIMH Psychoactive Drug Screening Program (PDSP)
T3 sequence (P46098 24-478): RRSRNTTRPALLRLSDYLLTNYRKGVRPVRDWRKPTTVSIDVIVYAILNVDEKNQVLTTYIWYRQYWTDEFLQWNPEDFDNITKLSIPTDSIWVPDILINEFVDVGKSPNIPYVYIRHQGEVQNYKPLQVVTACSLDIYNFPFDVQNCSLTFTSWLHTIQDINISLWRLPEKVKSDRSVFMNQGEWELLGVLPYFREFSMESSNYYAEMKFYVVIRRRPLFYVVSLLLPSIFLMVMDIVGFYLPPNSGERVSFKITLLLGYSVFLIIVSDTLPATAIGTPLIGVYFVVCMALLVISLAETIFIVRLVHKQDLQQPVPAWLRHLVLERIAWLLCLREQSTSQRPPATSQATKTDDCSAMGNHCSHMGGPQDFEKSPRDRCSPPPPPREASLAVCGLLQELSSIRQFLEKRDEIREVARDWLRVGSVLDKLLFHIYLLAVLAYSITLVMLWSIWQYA
Kind of series: PDSP primary binding 5-HT3. The conditions noted are these: 1.5 h; primary binding, 10,000 nM; last figure of the line = mean of the 4 before it; read-out: 5-HT3, PDSP raw data, mean. Here is the method:
as §1, §2, §3

In a further series the target is T4, 5-HT7A (Homo sapiens, UniProt P34969).
T4 construct: purchased NIMH Psychoactive Drug Screening Program (PDSP)
T4 sequence (P34969 1-445 isoform P34969-2): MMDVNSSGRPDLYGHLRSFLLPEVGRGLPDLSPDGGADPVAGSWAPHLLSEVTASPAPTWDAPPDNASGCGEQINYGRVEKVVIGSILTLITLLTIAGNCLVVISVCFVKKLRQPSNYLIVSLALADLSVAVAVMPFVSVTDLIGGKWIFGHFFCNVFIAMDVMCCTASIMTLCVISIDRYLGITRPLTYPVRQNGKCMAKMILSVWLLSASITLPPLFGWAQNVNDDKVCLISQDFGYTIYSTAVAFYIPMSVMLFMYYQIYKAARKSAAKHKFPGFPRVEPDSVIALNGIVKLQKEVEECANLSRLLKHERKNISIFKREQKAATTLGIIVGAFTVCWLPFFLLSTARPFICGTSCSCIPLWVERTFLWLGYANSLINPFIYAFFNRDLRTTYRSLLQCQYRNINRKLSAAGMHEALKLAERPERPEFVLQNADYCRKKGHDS
Kind of series: PDSP primary binding 5-HT7A. The settings on record: 1.5 h; primary binding, 10,000 nM; last figure of the line = mean of the 4 before it; read-out: 5-HT7A, PDSP raw data, mean. As to the method: as §1, §2, §3

The next series concerns the target T5, A2A (Homo sapiens, UniProt P29274).
T5 construct: purchased NIMH Psychoactive Drug Screening Program (PDSP)
Kind of series: PDSP primary binding A2A. The settings on record: primary binding, 10,000 nM; last figure of the line = mean of the 4 before it. As to the method:
as §1, §2, §3

The target of the next series is T6, Alpha2C (Homo sapiens, UniProt P18825).
T6 construct: purchased NIMH Psychoactive Drug Screening Program (PDSP)
T6 sequence (P18825 1-462): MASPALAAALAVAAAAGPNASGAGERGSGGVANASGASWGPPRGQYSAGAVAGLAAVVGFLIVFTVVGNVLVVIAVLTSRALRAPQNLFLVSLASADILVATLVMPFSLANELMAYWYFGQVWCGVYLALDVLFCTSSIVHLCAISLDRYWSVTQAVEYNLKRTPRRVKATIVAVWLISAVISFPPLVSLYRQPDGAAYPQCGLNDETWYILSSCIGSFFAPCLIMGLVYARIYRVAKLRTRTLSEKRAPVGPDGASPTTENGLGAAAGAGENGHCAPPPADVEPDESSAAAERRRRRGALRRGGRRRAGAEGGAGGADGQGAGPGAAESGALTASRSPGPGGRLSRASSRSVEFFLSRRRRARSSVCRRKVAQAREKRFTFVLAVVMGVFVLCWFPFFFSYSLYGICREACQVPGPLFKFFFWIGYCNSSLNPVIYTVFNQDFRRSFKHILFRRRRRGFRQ
Kind of series: PDSP primary binding Alpha2C. The conditions noted are these: 1.5 h; primary binding, 10,000 nM; last figure of the line = mean of the 4 before it; read-out: Alpha2C, PDSP raw data, mean. Here is the method:
as §1, §2, §3

The target of the next series is T7, M2 (Homo sapiens, UniProt P08172).
T7 construct: purchased NIMH Psychoactive Drug Screening Program (PDSP)
T7 sequence (P08172 1-466): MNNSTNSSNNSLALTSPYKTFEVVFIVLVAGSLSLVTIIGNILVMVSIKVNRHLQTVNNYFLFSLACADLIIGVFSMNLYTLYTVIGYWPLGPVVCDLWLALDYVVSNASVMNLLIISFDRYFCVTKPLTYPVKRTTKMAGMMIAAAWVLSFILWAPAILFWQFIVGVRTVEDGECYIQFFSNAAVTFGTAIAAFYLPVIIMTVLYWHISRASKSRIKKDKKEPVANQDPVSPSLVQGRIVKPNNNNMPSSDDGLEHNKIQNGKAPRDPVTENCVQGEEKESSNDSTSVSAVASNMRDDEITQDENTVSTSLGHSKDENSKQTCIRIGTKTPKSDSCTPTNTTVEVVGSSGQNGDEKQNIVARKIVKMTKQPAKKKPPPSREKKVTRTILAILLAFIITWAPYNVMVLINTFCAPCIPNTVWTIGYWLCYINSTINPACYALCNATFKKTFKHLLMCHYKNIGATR
Kind of series: PDSP primary binding M2. The conditions noted are these: primary binding, 10,000 nM; last figure of the line = mean of the 4 before it; read-out: M2, PDSP raw data, mean. As to the method: as §1, §2, §3

The test system of the next series is Kainate (Rat Brain). Kind of series: PDSP primary binding Kainate (Rat Brain). The settings on record: primary binding, 10,000 nM; last figure of the line = mean of the 4 before it. Here is the method:
as §1, §2, §3

A further series concerns the target T8, Alpha3Beta4 (Rattus norvegicus, UniProt P04757+P12392).
T8 construct: purchased NIMH Psychoactive Drug Screening Program (PDSP)
Kind of series: PDSP primary binding Alpha3Beta4. The conditions noted are these: primary binding, 10,000 nM; last figure of the line = mean of the 4 before it; read-out: Alpha3Beta4, PDSP raw data, mean. Here is the method:
as §1, §2, §3

T2 sequence (P28221 whole entry): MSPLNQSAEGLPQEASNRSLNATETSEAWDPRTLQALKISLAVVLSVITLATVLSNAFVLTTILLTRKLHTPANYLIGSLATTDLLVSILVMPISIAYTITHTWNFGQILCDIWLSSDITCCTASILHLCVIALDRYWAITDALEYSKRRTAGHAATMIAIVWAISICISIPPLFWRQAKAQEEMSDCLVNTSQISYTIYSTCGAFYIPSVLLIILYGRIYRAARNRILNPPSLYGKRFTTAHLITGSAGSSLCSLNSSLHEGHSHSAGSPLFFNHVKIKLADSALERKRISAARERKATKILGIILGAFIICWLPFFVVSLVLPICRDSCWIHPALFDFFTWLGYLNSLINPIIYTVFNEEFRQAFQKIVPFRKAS
T8 sequence (P04757 26-499): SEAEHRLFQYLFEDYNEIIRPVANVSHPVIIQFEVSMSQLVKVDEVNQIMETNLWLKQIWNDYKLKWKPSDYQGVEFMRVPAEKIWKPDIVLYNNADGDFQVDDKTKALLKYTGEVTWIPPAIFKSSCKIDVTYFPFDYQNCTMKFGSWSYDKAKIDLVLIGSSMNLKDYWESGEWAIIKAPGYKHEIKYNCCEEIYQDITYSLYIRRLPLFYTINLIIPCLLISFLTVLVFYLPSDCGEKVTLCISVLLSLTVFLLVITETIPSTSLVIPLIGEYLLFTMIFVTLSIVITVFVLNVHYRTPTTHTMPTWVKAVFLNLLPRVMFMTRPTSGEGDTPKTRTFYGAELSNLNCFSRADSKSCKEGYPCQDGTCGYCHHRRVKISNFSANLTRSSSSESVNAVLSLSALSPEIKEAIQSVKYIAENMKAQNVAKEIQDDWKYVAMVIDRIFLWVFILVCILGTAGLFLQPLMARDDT
T8 sequence (P12392 21-495): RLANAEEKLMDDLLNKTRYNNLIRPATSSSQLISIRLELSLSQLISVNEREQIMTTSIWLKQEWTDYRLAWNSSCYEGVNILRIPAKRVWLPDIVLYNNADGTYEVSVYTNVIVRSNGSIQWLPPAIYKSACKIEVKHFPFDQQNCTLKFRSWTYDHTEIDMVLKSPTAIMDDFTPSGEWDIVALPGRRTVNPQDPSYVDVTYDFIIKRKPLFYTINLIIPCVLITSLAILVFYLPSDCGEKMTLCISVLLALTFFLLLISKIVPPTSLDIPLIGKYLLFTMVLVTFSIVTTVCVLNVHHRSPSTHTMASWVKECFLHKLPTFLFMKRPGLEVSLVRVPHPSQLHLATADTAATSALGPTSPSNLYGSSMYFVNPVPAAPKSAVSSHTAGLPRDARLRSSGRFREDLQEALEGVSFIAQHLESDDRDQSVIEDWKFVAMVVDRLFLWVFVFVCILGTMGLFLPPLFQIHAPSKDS
T1 sequence (Q12809 whole entry): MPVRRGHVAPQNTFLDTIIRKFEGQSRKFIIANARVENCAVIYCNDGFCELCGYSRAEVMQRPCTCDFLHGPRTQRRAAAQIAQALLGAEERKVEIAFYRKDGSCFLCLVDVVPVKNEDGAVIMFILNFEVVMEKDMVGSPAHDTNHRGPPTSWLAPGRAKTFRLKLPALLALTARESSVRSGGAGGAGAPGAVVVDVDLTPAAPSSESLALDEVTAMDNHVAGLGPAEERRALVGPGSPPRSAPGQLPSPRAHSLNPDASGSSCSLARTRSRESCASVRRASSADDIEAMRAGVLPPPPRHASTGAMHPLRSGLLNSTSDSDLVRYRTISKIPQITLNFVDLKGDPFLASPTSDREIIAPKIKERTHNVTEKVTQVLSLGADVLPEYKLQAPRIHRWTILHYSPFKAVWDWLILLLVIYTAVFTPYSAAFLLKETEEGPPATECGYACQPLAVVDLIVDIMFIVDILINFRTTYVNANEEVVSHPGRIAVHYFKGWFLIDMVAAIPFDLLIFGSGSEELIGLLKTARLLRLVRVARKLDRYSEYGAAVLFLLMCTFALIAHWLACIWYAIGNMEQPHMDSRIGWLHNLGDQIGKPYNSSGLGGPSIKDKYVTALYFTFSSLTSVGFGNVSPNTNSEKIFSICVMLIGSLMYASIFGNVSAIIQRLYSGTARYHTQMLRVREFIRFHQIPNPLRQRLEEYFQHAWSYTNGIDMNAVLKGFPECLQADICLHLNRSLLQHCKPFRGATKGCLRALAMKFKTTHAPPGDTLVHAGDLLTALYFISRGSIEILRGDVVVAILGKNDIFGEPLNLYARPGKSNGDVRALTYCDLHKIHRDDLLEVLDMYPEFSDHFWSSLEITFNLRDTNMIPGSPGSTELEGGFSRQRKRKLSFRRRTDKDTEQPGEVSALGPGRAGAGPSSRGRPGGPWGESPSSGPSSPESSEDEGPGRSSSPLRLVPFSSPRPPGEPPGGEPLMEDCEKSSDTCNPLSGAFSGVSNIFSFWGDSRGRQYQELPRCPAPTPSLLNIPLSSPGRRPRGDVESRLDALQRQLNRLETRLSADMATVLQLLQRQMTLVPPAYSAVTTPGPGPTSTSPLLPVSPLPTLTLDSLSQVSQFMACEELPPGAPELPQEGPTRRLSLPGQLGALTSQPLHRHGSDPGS
T5 sequence (P29274 whole entry): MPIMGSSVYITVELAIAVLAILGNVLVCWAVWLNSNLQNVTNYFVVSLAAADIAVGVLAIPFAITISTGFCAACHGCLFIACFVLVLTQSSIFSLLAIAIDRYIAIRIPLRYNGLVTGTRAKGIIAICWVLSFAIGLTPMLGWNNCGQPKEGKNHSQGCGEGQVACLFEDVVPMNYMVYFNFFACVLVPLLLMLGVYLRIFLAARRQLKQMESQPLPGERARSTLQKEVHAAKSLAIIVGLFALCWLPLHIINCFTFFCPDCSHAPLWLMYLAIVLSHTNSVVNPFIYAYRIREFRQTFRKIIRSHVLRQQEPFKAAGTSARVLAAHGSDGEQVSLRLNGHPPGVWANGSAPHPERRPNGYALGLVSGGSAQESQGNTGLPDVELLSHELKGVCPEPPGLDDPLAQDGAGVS

For the compound `CC(C)c1noc(-c2ncn3c2[C@@H](C)N=C(c2ccccc2F)c2cc(Cl)ccc2-3)n1` [Compound 37, (R)-5-(8-Chloro-6-(2′-fluorophenyl)-4-methyl-4H-benzo[f]imidazo[1,5-a][1,4]diazepin-3-yl)-3-isopropyl-1,2,4-oxadiazole], the “HERG, PDSP raw data, mean” value on hERG channels amounted to 20.73%. In addition, the inhibition at 10 µM on 5-HT1D is 9.73%; on 5-HT3, 13.5%; on 5-HT7A, 12.1%; on Alpha2C, 2.74%; on M2, -19.3%; on Alpha3Beta4 it was 18.8%. Besides, on A2A, the “A2A, PDSP raw data, mean” value is given as -1.87%. The “Kainate (Rat Brain), PDSP raw data, mean” value with Kainate (Rat Brain) came to 35.39%.
In the case of `C[C@H]1N=C(c2ccccc2F)c2cc(Cl)ccc2-n2cnc(-c3nc(C4CC4)no3)c21` [Compound 38, (R)-5-(8-Chloro-6-(2′-fluorophenyl)-4-methyl-4H-benzo[f]imidazo[1,5-a][1,4]diazepin-3-yl)-3-cyclopropyl-1,2,4-oxadiazole], the “HERG, PDSP raw data, mean” value at hERG channels is reported as 9.37%. The inhibition at 10 µM on 5-HT1D was 7.31%; on 5-HT3 it was 13.5%; at 5-HT7A, 11.9%; on Alpha2C, 9.93%; at M2, -9.65%; at Alpha3Beta4, 12.4%. The “A2A, PDSP raw data, mean” value on A2A was 19.95%. Moreover, in the series with Kainate (Rat Brain), the “Kainate (Rat Brain), PDSP raw data, mean” value is on record as 36.46%.
Consider `CCc1noc(-c2ncn3c2CN=C(c2ccccc2F)c2cc(C4CC4)ccc2-3)n1` [Compound 44, 5-(8-Cyclopropyl-6-(2′-fluorophenyl)-4H-benzo[f]imidazo[1,5-a][1,4]diazepin-3-yl)-3-ethyl-1,2,4-oxadiazole], for which, on hERG channels, the “HERG, PDSP raw data, mean” value is given as 33.24%. Moreover, the inhibition at 10 µM at 5-HT1D is 67.4%; on 5-HT3, 12.8%; on 5-HT7A it was 9.22%; on Alpha2C, 15.7%; on M2, -13.6%; at Alpha3Beta4, 7.56%. The “A2A, PDSP raw data, mean” value on A2A was determined as 21.36%. In addition, the “Kainate (Rat Brain), PDSP raw data, mean” value in the series on Kainate (Rat Brain) amounted to 42.42%.
As to `CCc1noc(-c2ncn3c2[C@@H](C)N=C(c2ccccc2F)c2cc(C4CC4)ccc2-3)n1` [Compound 46, (R)-5-(8-Cyclopropyl-6-(2′-fluorophenyl)-4-methyl-4H-benzo[f]imidazo[1,5-a][1,4]diazepin-3-yl)-3-ethyl-1,2,4-oxadiazole], the “HERG, PDSP raw data, mean” value at hERG channels was 4.34%. Moreover, the inhibition at 10 µM at 5-HT1D stood at 17.7%; at 5-HT3 it was 29.8%; on 5-HT7A, 4.98%; on Alpha2C, 11.9%; on M2, 5.73%; on Alpha3Beta4, 10.4%. For the same compound, the “A2A, PDSP raw data, mean” value at A2A was found to be 27.25%. Further, the “Kainate (Rat Brain), PDSP raw data, mean” value in the series with Kainate (Rat Brain) is recorded as 38.21%.
